One experiment deals with BV-2 (mouse microglia) cells. Briefly: progranulin secretion from BV-2 cells, mouse progranulin ELISA of conditioned media. The settings on record: BV-2 cells, 16 hours incubation, 8-point curves starting at 10 μM; assay run v2 (same protocol, different assay); read-out: PRGN v2 (EC50, progranulin secretion). It is filed as cell-based. The essentials:
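Mouse BV-2 microglia plated at 30,000 cells/well in RPMI/L-glutamine with 2% Fetal clone serum II, 1 h attachment. Treated for 16 h with 8-point half-log dilutions from 10 μM. Secreted progranulin measured by mouse progranulin ELISA on 1:10-diluted conditioned media.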
For `CC1(C)[C@@H](OC(=O)N2CCc3ccccc3[C@@H]2c2ccc(F)cc2)C2CCN1CC2` [Compound 1144], the concentration giving a half-maximal response (EC50) is greater than 10 µM.
For `CC1(C)[C@H](OC(=O)N2CCc3ccccc3[C@@H]2c2ccc(F)cc2)C2CCN1CC2` [Compound 1145], the 50% effective concentration (EC50) was 0.57 µM.

Still in this experiment, the particulars now being: Mus musculus, BV-2, 16 h, BV-2 cells, 16 hours incubation, 8-point curves starting at 10 μM; assay run v2 (same protocol, different assay); read-out: PRGN v2 (EC50, progranulin secretion).
Take `O=S(=O)(C[C@@H]1CN2CCC1CC2)N1CCc2ccccc2[C@@H]1c1ccccc1` [Compound 1140]: the concentration giving a half-maximal response (EC50) is greater than 10 µM.
As for `O=S(=O)(C[C@@H]1CN2CCC1CC2)N1CCc2ccccc2[C@H]1c1ccccc1` [Compound 1141], the EC50 came out at 3.36 µM.
Turning to `O=S(=O)(C[C@H]1CN2CCC1CC2)N1CCc2ccccc2[C@@H]1c1ccccc1` [Compound 1142], the EC50 was greater than 10 µM.
As to `O=S(=O)(C[C@H]1CN2CCC1CC2)N1CCc2ccccc2[C@H]1c1ccccc1` [Compound 1143], the EC50 was greater than 10 µM.

Staying with this experiment, now noted: Mus musculus; BV-2 cells, 16 hours incubation, 8-point curves starting at 10 μM; assay run v2 (same protocol, different assay); read-out: PRGN v2 (EC50, progranulin secretion).
Regarding `Cc1nc2ccc([C@H]3c4ccccc4CCN3C(=O)O[C@@H]3CN4CCC3CC4)cc2o1` [Compound 1138], the half-maximal effective concentration (EC50) was greater than 10 µM.
Consider `Cc1nc2ccc([C@@H]3c4ccccc4CCN3C(=O)O[C@@H]3CN4CCC3CC4)cc2o1` [Compound 1139], for which the EC50 is greater than 10 µM.
For the compound `COCCOCCOCCNC(=O)c1ccc([C@H]2c3ccccc3CCN2C(=O)O[C@@H]2CN3CCC2CC3)cc1` [Compound 1146], the concentration for a half-maximal effect (EC50) was greater than 10 µM.
With `COCCOCCOCCNC(=O)c1ccc([C@@H]2c3ccccc3CCN2C(=O)O[C@@H]2CN3CCC2CC3)cc1` [Compound 1147], the concentration giving a half-maximal response (EC50) is greater than 10 µM.
For `CC1(C)[C@@H](OC(=O)N2CCc3ccccc3[C@@H]2c2cccc(F)c2F)C2CCN1CC2` [Compound 1148], the EC50 was greater than 10 µM.
As to `CC1(C)C(OC(=O)N2CCc3ccccc3[C@H]2c2cccc(F)c2F)C2CCN1CC2` (stereo partly shown) [Compound 1149], the EC50 was 0.43 µM.

Still in this experiment, the particulars now being: mouse BV2 cells.
For the compound `O=C(O[C@H]1CN2CCC1CC2)N1CCc2ccccc2[C@@H]1c1ccccc1` [Solifenacin, solifenacin, reference compound], the “secretion of progranulin from mouse BV2 cells” value is “causes the secretion of progranulin from mouse BV2 cells”.

(Values after patent publication US20210163471A1, “PROGRANULIN MODULATORS AND METHODS OF USING THE SAME” (ARKUDA THERAPEUTICS, priority 2017, published 2021).)
